In ChEMBL document CHEMBL1201862, “PubChem BioAssay data set” (2004):
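Five compound concentrations were applied to cells in 96-well plates for 48 hours; endpoints were derived by simple linear interpolation of the resulting dose-response curve. GI50: concentration for 50% inhibition of growth.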 The source made the active and inactive calls. Cut-off read from the data, not from the text of the source: active = GI50 up to about 1.1 µM and inactive = higher.

Tests used:
Experiment in all cases: inhibition of tumour cell growth, NCI panel, 48 h
SK-MEL-5 = tested on: SK-MEL-5
A549 = tested on: A549
SNB-19 = tested on: SNB-19
SF-295 = tested on: SF-295
MDA-MB-231 = tested on: MDA-MB-231
HOP-62 = tested on: HOP-62
IGROV-1 = tested on: IGROV-1
MCF7 = tested on: MCF7
TK-10 = tested on: TK-10
K562 = tested on: K562
HCT-15 = tested on: HCT-15
SF-268 = tested on: SF-268
RPMI-8226 = tested on: RPMI-8226
HT-29 = tested on: HT-29
ACHN = tested on: ACHN
SW-620 = tested on: SW-620
HCC 2998 = tested on: HCC 2998
NCI/ADR-RES = tested on: NCI/ADR-RES

Structure (SMILES) | GI50 (SK-MEL-5) | GI50 (A549) | GI50 (SNB-19) | GI50 (SF-295) | GI50 (MDA-MB-231) | GI50 (HOP-62) | GI50 (IGROV-1) | GI50 (MCF7) | GI50 (TK-10) | GI50 (K562) | GI50 (HCT-15) [µM] | GI50 (SF-268) | GI50 (RPMI-8226) | GI50 (HT-29) | GI50 (ACHN) | GI50 (SW-620) | GI50 (HCC 2998) | GI50 (NCI/ADR-RES)
COc1ccc2c(c1)c1c3c(ccc4ncn2c43)N(CCN(C)C)CCN=1 | 0.91 µM (active) | 0.359 µM (active) | 0.405 µM (active) | 0.494 µM (active) | 0.476 µM (active) | 0.362 µM (active) | 1.31 µM (inactive) | 0.288 µM (active) | 1.49 µM (inactive) | 0.0488 µM (active) | 0.303 | 0.836 µM (active) | 1.48 µM (inactive) | 0.135 µM (active) | 0.701 µM (active) | 0.146 µM (active) | 0.422 µM (active) | 0.438 µM (active)
CCOP(=O)(OCC)OC1c2[nH]cc(C(=O)OCc3ccccc3)c2-c2cc(C(=O)OC)[nH]c2C1OC (centres undefined) | 7.46 µM (inactive) | 5.85 µM (inactive) | 14.7 µM (inactive) | 5 µM (inactive) | 2.91 µM (inactive) | 7.76 µM (inactive) | 7.59 µM (inactive) | 8.67 µM (inactive) | 4.91 µM (inactive) | > 20 µM (inactive) | 3.25 | 12.5 µM (inactive) | 5.62 µM (inactive) | 3.24 µM (inactive) | 4.66 µM (inactive) | 14.5 µM (inactive) | 6.85 µM (inactive) | 7.53 µM (inactive)
CC(Oc1ccccc1Cl)C(=O)NN1C(=O)CC(=O)NC1=S (centres undefined) | > 100 µM (inactive) | > 100 µM (inactive) | > 100 µM (inactive) | 89.5 µM (inactive) | > 100 µM (inactive) | > 100 µM (inactive) | > 100 µM (inactive) | > 100 µM (inactive) | > 100 µM (inactive) | 9.53 µM (inactive) | > 100 | > 100 µM (inactive) | 98.9 µM (inactive) | > 100 µM (inactive) | 63.7 µM (inactive) | > 100 µM (inactive) | > 100 µM (inactive) | > 100 µM (inactive)
O=C1c2cc(Cc3ccccc3)c(=O)c(Cc3ccccc3)cc2C(=O)c2cc(Cc3ccccc3)c(=O)c(Cc3ccccc3)cc21 | > 100 µM (inactive) | > 100 µM (inactive) | > 100 µM (inactive) | > 100 µM (inactive) | > 100 µM (inactive) | > 100 µM (inactive) | > 100 µM (inactive) | > 100 µM (inactive) | > 100 µM (inactive) | 89.9 µM (inactive) | > 100 | > 100 µM (inactive) | > 100 µM (inactive) | > 100 µM (inactive) | > 100 µM (inactive) | > 100 µM (inactive) | > 100 µM (inactive) | > 100 µM (inactive)
CN(C)C(=O)Nc1cc2c3c(c1)CCCN3CCC2 | > 10 µM (inactive) | > 10 µM (inactive) | > 10 µM (inactive) | > 10 µM (inactive) | > 10 µM (inactive) | > 10 µM (inactive) | > 10 µM (inactive) | > 10 µM (inactive) | > 10 µM (inactive) | > 10 µM (inactive) | > 10 | > 10 µM (inactive) | > 10 µM (inactive) | > 10 µM (inactive) | > 10 µM (inactive) | > 10 µM (inactive) | > 10 µM (inactive) | > 10 µM (inactive)
O=C1C(CN2CCCC2)CCC1CN1CCCC1 (centres undefined) | 17.3 µM (inactive) | > 100 µM (inactive) | > 100 µM (inactive) | > 100 µM (inactive) | 13.5 µM (inactive) | > 100 µM (inactive) | 27.9 µM (inactive) | 19.4 µM (inactive) | 18.3 µM (inactive) | 2.9 µM (inactive) | 17.7 | 20.8 µM (inactive) | 3.59 µM (inactive) | 20 µM (inactive) | 15.8 µM (inactive) | 4.12 µM (inactive) | > 100 µM (inactive) | 23.9 µM (inactive)
C/C(=C\COc1cc(O)c2c(c1)C(=O)c1cc(C)cc(O)c1C2=O)CCC1OC1(C)C (centres undefined) | 31.2 µM (inactive) | 85.5 µM (inactive) | > 100 µM (inactive) | > 100 µM (inactive) | > 100 µM (inactive) | 46 µM (inactive) | 68.9 µM (inactive) | 38.4 µM (inactive) | 40.3 µM (inactive) | 83.8 µM (inactive) | 84.3 | 42.3 µM (inactive) | 93.8 µM (inactive) | > 100 µM (inactive) | 40.9 µM (inactive) | > 10 µM (inactive) | > 100 µM (inactive) | > 100 µM (inactive)
CC(=O)c1cc2c(s1)C(=O)c1ccccc1C2=O | 0.26 µM (active) | 3.52 µM (inactive) | 0.424 µM (active) | 2.79 µM (inactive) | 3.13 µM (inactive) | 2.44 µM (inactive) | 2.01 µM (inactive) | 2.08 µM (inactive) | 5.47 µM (inactive) | 2.09 µM (inactive) | 0.61 | 2.73 µM (inactive) | 2.38 µM (inactive) | 3.4 µM (inactive) | 1.36 µM (inactive) | 0.951 µM (active) | 5.37 µM (inactive) | 1.89 µM (inactive)
